In PMC8716319 (Toxicology, 2020):

Experiments:
[1] = target: T1, microsomal epoxide hydrolase (Homo sapiens, UniProt P07099); type: in vitro ADME; conditions: 1 μM elaidamide; 40 and 400 μM substrate; HLM
T1 sequence (P07099 1-455): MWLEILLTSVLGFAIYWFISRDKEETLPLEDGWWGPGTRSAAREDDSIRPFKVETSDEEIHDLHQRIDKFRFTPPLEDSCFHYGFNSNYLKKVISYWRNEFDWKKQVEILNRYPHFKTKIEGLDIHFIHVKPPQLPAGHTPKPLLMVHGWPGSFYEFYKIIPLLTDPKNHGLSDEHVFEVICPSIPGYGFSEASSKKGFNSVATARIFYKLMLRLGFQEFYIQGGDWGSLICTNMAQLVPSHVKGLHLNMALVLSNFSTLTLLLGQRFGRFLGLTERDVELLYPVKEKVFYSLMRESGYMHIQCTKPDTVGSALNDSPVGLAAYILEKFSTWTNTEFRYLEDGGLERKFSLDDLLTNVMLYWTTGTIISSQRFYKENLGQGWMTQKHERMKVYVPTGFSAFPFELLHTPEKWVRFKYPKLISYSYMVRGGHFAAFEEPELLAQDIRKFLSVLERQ

[2] = Stability of alpha-dicarbonyl metabolites under reaction conditions; type: in vitro ADME; conditions: low (50 μM) and high (500 μM) concentrations; student's t-test p < 0.05

Structure (SMILES) | inhibition of alpha-dicarbonyl formation by elaidamide [1] [%] | depletion under reaction conditions [2]
CN1C(C(=O)Nc2nccs2)=C(O)c2ccccc2S1(=O)=O [sudoxicam, N-(2-thiazolyl)-4-hydroxy-2-methyl-2H-1,2-benzothiazine-3-carboxamide 1,1-dioxide] | 90 | 
O=CC=O [glyoxal] |  | no significant depletion
CC(=O)C=O [methylglyoxal] |  | only significant depletion after 60 min
